Values joined by “and” are separate entries in the source; they are usually repeats but may differ in a detail not shown here. Equal entries are not always repeated.
Assay: solvent given as SMILES

Question: With F[B-]1(F)n2c(nc(-c3ccccc3)c2-c2ccccc2)-c2cccc[n+]21 as the compound, how does the emission maximum (in C1CCCCC1) read?
Answer: 517 nm

Question: What about the emission maximum (in C1CCOC1) of the same compound?
Answer: 537 nm

Question: And the emission maximum (in C1COCCO1)?
Answer: 510 nm

Question: What about the emission maximum (in CC#N) of the same compound?
Answer: 543 nm and 498 nm

Question: And the emission maximum (in CCCCCC)?
Answer: 510 nm and 515 nm

Question: What about the emission maximum (in CO) of the same compound?
Answer: 525 nm and 534 nm

Question: What about the emission maximum (in ClC(Cl)Cl) of the same compound?
Answer: 520 nm and 528 nm

Question: And the emission maximum (in ClCCl)?
Answer: 528 nm

Question: For Cc1cc2ccccc2c2c1c1ccccc1n2-c1ccc(N(c2ccccc2)c2ccccc2)cc1, which emission maximum (in CCOC(C)=O) is on record?
Answer: 386 nm

Question: What about the emission maximum (in CS(C)=O) of the same compound?
Answer: 428 nm

Question: What about the emission maximum (in ClCCl) of the same compound?
Answer: 404 nm

Question: For C[n+]1ccc2c(ccc3c[n+](C)ccc32)c1, which emission maximum (in CC#N) is on record?
Answer: 407 nm

Question: For O=C1[C@@H]2[C@H](C(=O)N1c1cccc3cc4ccccc4cc13)[C@H]1C[C@@H]2c2c1c(-c1ccccc1)c1ccccc1c2-c1ccccc1, which emission maximum (in ClC(Cl)Cl) is on record?
Answer: 392 nm

Question: Which emission maximum (in O) does the source give for Cc1cc(N(C)C)ccc1C1=C2C=CC(=[N+](C)C)C=C2[Si](C)(C)c2cc(N(C)C)ccc21 here?
Answer: 663 nm

Question: Which emission maximum (in ClCCl) does the source give for CCN(CC)c1ccc2cc(-c3ccc(-c4ccc(-c5cc6ccccc6oc5=O)cc4)cc3)c(=O)oc2c1 here?
Answer: 478 nm

Question: With O=C1/C(=C2\Sc3ccc(S(=O)(=O)Nc4ccccc4)cc3C2=O)Sc2ccc(S(=O)(=O)Nc3ccccc3)cc21 as the compound, how does the emission maximum (in C1COCCO1) read?
Answer: 588 nm

Question: What about the emission maximum (in CN(C)C=O) of the same compound?
Answer: 604 nm

Question: And the emission maximum (in CO)?
Answer: 618 nm

Question: What about the emission maximum (in CS(C)=O) of the same compound?
Answer: 627 nm

Question: Which emission maximum (in ClCCl) does the source give for COc1ccccc1C1=[N+]2C(=C(c3ccccc3)c3c4ccccc4c(-c4ccccc4OC)n3[B-]2(F)F)c2ccccc21 here?
Answer: 652 nm

Question: With CCCCCCCCc1ccc(-c2ccc(/C=C(\C#N)c3ccc(-c4cccc5cccc(-c6ccc(/C(C#N)=C/c7ccc(-c8ccc(CCCCCCCC)cc8)cc7)cc6)c45)cc3)cc2)cc1 as the compound, how does the emission maximum (in Cc1ccccc1) read?
Answer: 491 nm

Question: Which results are given for O=S1(=O)c2ccccc2C2(c3cc(-c4ccc(N(c5ccccc5)c5ccccc5)cc4)ccc3-c3ccc(-c4ccc(N(c5ccccc5)c5ccccc5)cc4)cc32)c2ccccc21?
Answer: emission maximum (in ClCCl): 460 nm; emission maximum (in c1cc(-n2c3ccccc3c3ccccc32)cc(-n2c3ccccc3c3ccccc32)c1): 448 nm

Question: With COc1cc2c(cc1-c1ccsc1)Cc1c3c(c4c(c1-2)-c1cc(OC)c(-c2ccsc2)cc1C4)C(=O)N(CCC(C)C)C3=O as the compound, how does the emission maximum (in C1CCOC1) read?
Answer: 487 nm

Question: Which results are given for Cc1ccccc1-c1c2ccc(=[N+]3CCCC3)cc-2oc2cc(N3CCCC3)ccc12?
Answer: emission maximum (in CCO): 576 nm; emission maximum (in ClCCl): 573 nm

Question: For CC1(C)CC(=O)c2c(F)c(C(F)(F)F)c(F)c(F)c2N1, which emission maximum (in CC#N) is on record?
Answer: 419 nm

Question: And the emission maximum (in CCO)?
Answer: 453 nm

Question: Which emission maximum (in C1CCOC1) does the source give for CCCCCOc1ccc2c(c1)c1ccc3cccc4c5cccc6oc(=O)c2c(c65)c1c34 here?
Answer: 462 nm

Question: With c1cc2cc(c1)c1cccc(c1)c1ccc3ccc4ccc(cc4c3c1)c1cccc(c1)c1cccc2c1 as the compound, how does the emission maximum (in Cc1ccccc1) read?
Answer: 382 nm

Question: With CC(C)c1cc(C(C)C)c(B2c3ccccc3Oc3cc(N4c5ccccc5C5(c6ccccc6Oc6ccccc65)c5ccccc54)ccc32)c(C(C)C)c1 as the compound, how does the emission maximum (in Cc1ccccc1) read?
Answer: 451 nm

Question: With N#CC(C#N)=Cc1ccc2c(c1)c1cc(C=C(C#N)C#N)ccc1n2-c1cccc2ccccc12 as the compound, how does the emission maximum (in ClCCl) read?
Answer: 453 nm

Question: With Cc1ccc(/N=C2\N=C(N)c3cccc4cccc2c34)cc1 as the compound, how does the emission maximum (in ClCCl) read?
Answer: 498 nm

Question: Which results are given for CN(c1ccccc1)c1ccc(/C=C2\C(=O)c3ccccc3S2(=O)=O)cc1?
Answer: emission maximum (in C1CCOC1): 532 nm; emission maximum (in C1COCCO1): 542 nm; emission maximum (in CC#N): 511 nm; emission maximum (in CC(C)=O): 537 nm; emission maximum (in CCOC(C)=O): 533 nm; emission maximum (in CN(C)C=O): 524 nm; emission maximum (in CO): 525 nm; emission maximum (in CS(C)=O): 552 nm; emission maximum (in Cc1ccccc1): 576 nm; emission maximum (in ClC(Cl)Cl): 532 nm; emission maximum (in ClCCl): 547 nm

Question: What does the source list for CCC1=C(C)C(=O)n2c1cc1c(C)c(CCC(=O)OC)c(C)n1c2=O?
Answer: emission maximum (in CO): 530 nm; emission maximum (in CS(C)=O): 505 nm; emission maximum (in ClC(Cl)Cl): 495 nm; emission maximum (in c1ccccc1): 470 nm

Question: Which emission maximum (in c1ccccc1) does the source give for O=c1oc2ccccc2nc1-c1ccccc1 here?
Answer: 450 nm

Question: With C=Cc1cc2ccccc2oc1=O as the compound, how does the emission maximum (in CC#N) read?
Answer: 413 nm

Question: Which emission maximum (in ClC(Cl)Cl) does the source give for N#Cc1nc(N(Cc2ccccc2Cl)Cc2ccccc2Cl)c(C#N)nc1N(Cc1ccccc1Cl)Cc1ccccc1Cl here?
Answer: 567 nm

Question: For CCOC(=O)c1c(-c2cc3cc4c(cc3oc2=O)OC(C)(C)CC4)nn(-c2ccccc2)c1C(=O)OCC, which emission maximum (in ClCCl) is on record?
Answer: 430 nm

Question: With CC(C)CCCN1c2ccccc2CCc2ccccc21 as the compound, how does the emission maximum (in CC#N) read?
Answer: 352 nm

Question: And the emission maximum (in CO)?
Answer: 360 nm

Question: With COC(=O)c1nc(-c2cccc3ccccc23)oc1C as the compound, how does the emission maximum (in C1CCCCC1) read?
Answer: 340 nm

Question: What about the emission maximum (in CC#N) of the same compound?
Answer: 343 nm

Question: What about the emission maximum (in CCO) of the same compound?
Answer: 344 nm

Question: What about the emission maximum (in CCOC(C)=O) of the same compound?
Answer: 342 nm

Question: Which results are given for CC1(C)c2ccccc2N(c2ccc(-c3ncc(C#N)cn3)cc2)c2ccccc21?
Answer: emission maximum (in Cc1ccccc1): 543 nm; emission maximum (in N#Cc1ccc2c(c1)c1ccccc1n2-c1cccc(-n2c3ccccc3c3ccccc32)c1): 541 nm

Question: Which emission maximum (in ClCCl) does the source give for COc1ccc(-c2ncccn2)cc1 here?
Answer: 356 nm

Question: Which emission maximum (in C1CCOC1) does the source give for N#C/C=C/c1ccc2ccc3cccc4ccc1c2c34 here?
Answer: 425 nm

Question: And the emission maximum (in C1COCCO1)?
Answer: 421.5 nm

Question: What about the emission maximum (in C=CC#N) of the same compound?
Answer: 439.5 nm

Question: What about the emission maximum (in CC#N) of the same compound?
Answer: 440.5 nm

Question: And the emission maximum (in CC(C)=O)?
Answer: 433 nm

Question: And the emission maximum (in CCCCCC)?
Answer: 409.5 nm

Question: And the emission maximum (in CCOC(C)=O)?
Answer: 423 nm

Question: What about the emission maximum (in CO) of the same compound?
Answer: 443 nm

Question: What about the emission maximum (in Cc1ccccc1) of the same compound?
Answer: 423 nm

Question: And the emission maximum (in ClCCl)?
Answer: 434 nm

From the Deep4Chem optical property database
